# Entries after “also recorded” stand apart in the source; their conditions may differ. Read-outs that look alike come from different tables or passages of the source.
# B1: Glial Derived Neurotrophic Factor: a survival factor which has slowed degeneration in a rodent model (protein, UniProt P39905 78-211, looked up)
# Glial cell line-derived …: SPDKQMAVLPRRERNRQAAAANPENSRGKGRRGQRGKNRGCVLTAIHLNVTDLGLGYETKEELIFRYCSGSCDAAETTYDKILKNLSRNRRLVSDKVGQACCRPIAFDDDLSFLDDNLVYHILRKHSAKRCGCI
# Experiments:
# [1] = system: membranes from chicken and ground squirrel retinas; experiment: Retinyl ester formation and isomerization from [3H]atROL in membranes from chicken and ground squirrel retinas; type: biochemical; details: chicken and ground squirrel retina membranes
# Source text: There are striking differences in retinyl-ester content and retinoid turnover upon analysis of ocular tissues from cone-dominant ground squirrel and chicken. Chicken retinas contained 60% 11cRE and 40% atRE, while ground-squirrel retinas contained 80% 11cRE and 20% atRE. The ratio of cones to rods is 60:40 in chicken (Meyer et al., 1973), 96:4 in ground squirrel (West et al., 1975), 3:97 in mouse (Carter-Dawson et al., 1979), and 8:92 in bovine retina (Krebs et al., 1982). Thus, across multiple species, the level of 11cRE in retina is loosely correlated with the ratio of cone to rod photoreceptors. […] During time-course studies, [^3H]11cROL always preceded the appearance of [3H]11cRE. […] In particular, this new all-trans-retinol isomerase (atRI) is insensitive to tRBA. This insensitivity rules out the trivial explanation of RPE contamination in retinal membrane preparations. […] Unlike LRAT, this new ester synthase is not inhibited by tRBA or cRBA, and has high specificity for the 11cROL substrate.
# [2] = system: microsomal membranes prepared from bovine RPE; experiment: Retinyl ester formation and isomerization from [3H]retinols in microsomal membranes from bovine RPE; type: biochemical
# Protocol: The retinyl-ester content of fresh bovine ocular tissues were analyzed. Bovine RPE contained approximately 95% all-trans-retinyl esters (atRE) and 5% 1cRE. No retinyl esters were detectable in bovine retinas. When [^3H]atROL was added to microsomal membranes prepared from bovine RPE, the formation of [3H]atRE, and subsequent formation of [^3H]11cROL were observed. […] The isomeric inhibitor, 11-cis-retinyl α-bromoacetate (cRBA) was also synthesized. This agent suppressed the formation of [^3H]11cRE from [^3H]11cROL added to bovine-RPE membranes, but had no effect on the synthesis of [^3H]atRE or [^3H]11cROL from added [^3H]atROL. No ester-synthase activity was detected in bovine retinas. The results of these studies on rod-dominant bovine eyes are in full accord with the published results of other investigators (Rando et al., 1992; Saari et al., 1994; Crouch et al., 1996; Trehan et al., 1990).
# [3] = system: wild-type mice; experiment: Retinoid profile after intraperitoneal injection of isotretinoin into light-adapted wild-type mice; type: in vivo, mouse
# Source text: (§1) Long delays in 11cRAL regeneration are also observed after a photobleach in mice treated with isotretinoin. This alteration in the retinoid profile is similar to the pattern in 11cRDH knockout-mice (Driessen et al., 2000).
# [4] = Isotretinoin in retina and RPE by HPLC analysis after intraperitoneal injection
# [5] = system: mice; experiment: Photoreceptor degeneration by histologic or electroretinographic (ERG) analysis after prolonged isotretinoin treatment; type: in vivo, mouse; details: prolonged treatment at doses up to 50 mg/kg/day (25× the maximum human dose)
# Source text: as §1
# [6] = system: mice; details: Yuschak et al., 1993; cited from earlier work
# [7] = system: 11cRDH; details: Law et al., 1989, Gamble et al., 1999, cited from earlier work
# [8] = system: humans; details: clinical use for acne; due to impaired regeneration of rhodopsin; cited from earlier work
# [9] = system: abcr−/− mice; experiment: A2E and A2PE-H2 levels in ocular tissues of abcr−/− mice treated with isotretinoin (HPLC); type: in vivo, mouse
# Protocol: FIG. 7—A2E and A2PE-H2 in abcr−/− ocular tissues following treatment with isotretinoin. A2E and A2PE-H2 were extracted from the indicated tissues and analyzed by HPLC as previously described (Mata et al., 2000; Weng et al., 1999). (FIG. 7A) A2E levels in abcr−/− RPE from four-month-old mice treated for one month with isotretinoin at 40 mg/kg/day (4-mo 13cRA), four-month-old mice treated with DMSO carrier alone (4-mo DMSO), and three-month-old untreated mice (3-mo untreated). (FIG. 7B) A2PE-H2 levels in abcr−/− RPE from the same animals in panel (A) plus four-month-old untreated mice (4-mo untreated). (FIG. 7C) A2PE-H2 levels in abcr−/− retinas from the same animals in panel (B). All data are shown as milliabsorption units (mAU) at the indicated wavelengths±SEM (n=3).
# Tissue Preparation and Extraction. Mouse and human tissues were homogenized in 1 ml of PBS. For analysis of mouse outer segments, dissected retinas were shaken on a vortex mixer in 8% Optiprep/Ringer's buffer and fractionated by centrifugation through an Optiprep step-gradient according to the procedure of Tsang et al. (1998). Collected outer segments were suspended in 1 ml PBS and homogenized. 1 ml of chloroform/methanol (2:1, v/v) was added to each homogenate. Phospholipids and chloroform-soluble fluorophores were extracted twice from the samples following addition of 4 ml of chloroform and 3 ml water. The pooled organic phases were dried under a stream of argon. Sample residues were resuspended in 200- 400 μl of hexane, and analyzed by HPLC.
# Sample extracts were analyzed by normal phase HPLC using an HP 1100 liquid chromatograph with a photodiode array detector. Chromatography conditions were as previously described (Birnbach et al., 1994) using a silica column (Microsorb 5 μm Si, 250×4.6 mm) and the mobile phase: hexane/2-propanol/ethanol/25 mM potassium phosphate/acetic acid (485:376:100:40:0.275, v/v; pH 7.0). For A2PE-H2 purification, the water content was reduced to 2.5% for better resolution of fatty acyl esters. Spectra for the eluted peaks were corrected by subtracting the nearest integrated baseline to remove solvent absorption. A2-E, phosphatidylethanolamine, and all-trans-RAL were quantitated by comparing the sample peak-area to a calibration curve constructed with authentic standards (18:0-22:6 for the phosphatidylethanolamine standard) (Birnbach et al., 1994). […] In Table 6, APE and protonated-APE were quantitated using published molar extinction coefficients (Anderson et al., 1996).
# Three-month-old abcr−/− mice were treated with isotretinoin (13 cis retinoic acid) for one month.
# [10] = humans; cited from earlier work
# [11] = system: patients with retinitis pigmentosa (RP) and related retinal degenerations; details: supplemental lutein; Dagnelie et al., 2000; cited from earlier work
# [12] = biological target: T1, LRAT (Bos taurus, UniProt Q9BGL2); details: Trehan et al., 1990; cited from earlier work
# T1 construct: microsomal membranes prepared from bovine RPE; from tissue; host or cells: bovine retinal pigment epithelium, microsomal membranes
# T1 sequence (Q9BGL2 1-230): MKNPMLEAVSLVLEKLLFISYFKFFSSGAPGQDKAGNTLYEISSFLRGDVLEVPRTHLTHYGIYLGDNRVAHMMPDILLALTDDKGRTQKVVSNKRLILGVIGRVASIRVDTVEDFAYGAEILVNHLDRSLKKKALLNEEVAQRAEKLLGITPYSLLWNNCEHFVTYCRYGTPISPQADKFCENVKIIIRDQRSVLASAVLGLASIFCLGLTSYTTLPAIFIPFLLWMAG
# [13] = system: patients with neovascularisation extending under the center of the retina; details: cited from earlier work
# [14] = system: rodent model; details: cited from earlier work
# [15] = light-adapted wild-type mice, intraperitoneal injection
molecule,measurement,setting,value
"CC1=C(/C=C/C(C)=C/C=C\C(C)=C/COC(=O)CBr)C(C)(C)CCC1 [cRBA, 11-cis-retinyl α-bromoacetate]",synthesis of [3H]11cRE,[1],no effect
same,formation of [3H]11cRE from added [3H]11cROL,[2],suppressed
same,formation of atRE and 11cROL from added [3H]atROL,[2],no effect
"CC1=C(/C=C/C(C)=C/C=C/C(C)=C\C(=O)O)C(C)(C)CCC1 [isotretinoin, 13-cis-retinoic acid]",11cRAL and atRAL in outer segments,[3]; [15],Profound depletion
same,11cRE in RPE cells,[3]; [15],accumulation
same,11cRAL regeneration after a photobleach,[3]; mice treated with isotretinoin,Long delays
same,detection in retina and RPE,[4]; five minutes following an intraperitoneal injection,detected
same,tissue concentrations,[4]; one hour following a single injection at 4 mg/kg,micromolar range
same,photoreceptor degeneration by histologic or electroretinographic (ERG) analysis,[5],No photoreceptor degeneration
same,tolerated dose,[6],up to 400 mg/kg/day
same,inhibition of 11cRDH in RPE,[7],potent inhibitor
same,inhibition of 11cRDH in RPE,[7]; listed as Isotretinoin,inhibit 11cRDH
same,side effect night blindness,[8],common side effect
same,suppression of A2E accumulation in RPE,"[9]; abcr−/− mice, isotretinoin 40 mg/kg/day for one month, FIG. 7A",approximately two-fold
same,suppression of A2PE-H2 accumulation in RPE,"[9]; abcr−/− mice, isotretinoin 40 mg/kg/day for one month, FIG. 7B",approximately three-fold
same,A2PE-H2 in retina,"[9]; four-month-old abcr−/− mice after one month of isotretinoin, FIG. 7C",near absence; also recorded: virtually undetectable
same,"A2E in RPE, level relative to sham-treated (DMSO) controls",[9]; four-month-old abcr−/− mice treated for one month with isotretinoin at 40 mg/kg/day,approximately 50%
same,serum half-life,[10],10 to 20 h
CC1=C[C@H](O)CC(C)(C)[C@H]1/C=C/C(C)=C/C=C/C(C)=C/C=C/C=C(C)/C=C/C=C(C)/C=C/C1=C(C)C[C@@H](O)CC1(C)C [lutein],effect on vision,[11],short term improvements in vision
"CC1=C(/C=C/C(C)=C/C=C/C(C)=C/COC(=O)CBr)C(C)(C)CCC1 [tRBA, all-trans-retinyl α-bromoacetate]",formation of [3H]11cROL or [3H]11cRE from added [3H]atROL,[1],no effect
same,formation of [3H]atRE from added [3H]atROL,[1],completely suppressed
same,formation of [3H]11cRE from added [3H]11cROL,[2],completely inhibited
same,formation of atRE and 11cROL from added [3H]atROL,[2],completely suppressed
same,inhibition of LRAT,[12],potent inhibitor
verteporfin,risk of moderate and severe vision loss,"[13]; at one year, reduced from 61%",33%
same,risk of moderate and severe vision loss,"[13]; at two years, reduced from 69%",41%
B1,effect on retinal degeneration,[14],slowed degeneration
